Values quoted from earlier work as cited in patent US12233088B2 (Alexion Pharmaceuticals, Inc., priority 2017, dated 2025).

System: patients with Wilson's disease
Settings: cited from earlier work; for patients with worsening of neurological symptoms on initiation of treatment: reported

| SMILES | mean time to neurological worsening from initiation (Litwin et al.) [months] | patients with early neurological worsening, n (%) (of 42 patients with neurological Wilson's disease, Litwin et al.) | patients with worsening of neurological symptoms on initiation of treatment | children with gastrointestinal adverse events (Polish cohort, Wiernicka et al.) [%] | patients who discontinued treatment because of adverse events (retrospective study) [%] |
| --- | --- | --- | --- | --- | --- |
| CC(C)(S)[C@@H](N)C(=O)O [penicillamine, D-penicillamine] | 2.3 | 12 (29%) | approximately 25% | – | – |
| [Zn] [zinc] | – | – | – | 40 | 11 |
| NCCNCCNCCN [trientine] | – | – | approximately 25% | – | – |
